Assay [1] concerns human breast carcinoma cell line MDA-MB-231. Nature of the assay: Cell activity analysis (acid phosphatase, ACP). The following applies: Breast Cancer MDA-MB-231, treated at least 48 hrs, read-out: IC50 (50% cell activity inhibited). The assay is classed as cell-based. The procedure: (§1) Cell lines used in the present disclosure include human lung adenocarcinoma cell line A549, human hepatocarcinoma cell line Huh7, human colon carcinoma cell line HCT116, human non-small cell lung cancer cell line PC-9, gefitinib-resistant human non-small cell lung cancer cell line PC-9 (PC9-IR), and human breast carcinoma cell line MDA-MB-231.
(§2) Each cell lines were cultured and maintained in Dulbecco's modified Eagle media (DMEM) supplemented with 1% fetal bovine serum (FBS), 100 IU/ml penicillin, 100 ng/ml streptomycin, 2 mM glutamine, non-essential amino acids and sodium pyruvate in 5% CO2 at 37° C. Cells were grown and maintained in Petri dishes (each was 10 cm in diameter) until reached 80% confluence, then were subject to cell passages. Briefly, cells were first washed with phosphate buffer solution (PBS, 3 ml) once, then treated with 0.05% Trypsin/0.025% EDTA solution (1 mL) for 5 min so that the attached cells become suspended. Collected the suspended cells, added 2 mL fresh culture media to neutralize any remaining activity of trypsin. Adjusted the cell density by adding appropriate amounts of culture medium to the cell suspension, which was then used to seed the culture plates. The plates were then returned to the incubator and cultured in accordance with the steps described above.
(§3) Cells were seeded in 96-well plates with a density of 3,000 cells/well and cultured in accordance with the procedures described above.
(§4) Acid Phosphatase analysis
(§5) Cell activity may be derived from the acid phosphatase (ACP) activity of a cell.
(§6) In operation, cultured cells in each well were washed with PBS (200 μl), then a reacting solution (100 μl) (10 mM p-NPP, 0.1 M sodium acetate, 0.1% Triton X-100, pH 5.5) was added and allowed to react with the cells for 30-40 min at 37° C. The reaction was subsequently stopped with a basic solution (10 μl, 0.1N NaOH). Adsorption at the wavelength of 405 nm was then measured, and the concentration that inhibited 50% cell activity (IC50) was derived from the absorbance measurement.
(§7) The effects of GMAS on various cancer cell lines, including colon cancer, hepatoma, breast cancer, and lung cancer, were respectively assessed by cell activity analysis using ACP activity as an indicator. Results are depicted in FIG. 1.

Assay [2] deals with human colon carcinoma cell line HCT116. Nature of the assay: Cell activity analysis (acid phosphatase, ACP). In kind it is cell-based. The following applies: Colon Cancer HCT-116, treated at least 48 hrs, read-out: IC50 (50% cell activity inhibited). The procedure:
as §1, §2, §3, §4, §5, §6, §7

The test system of assay [3] is human hepatocarcinoma cell line Huh7. Nature of the assay: Cell activity analysis (acid phosphatase, ACP). In kind it is cell-based. The following applies: Hepatoma Huh-7, treated at least 48 hrs, read-out: IC50 (50% cell activity inhibited). On the procedure:
as §1, §2, §3, §4, §5, §6, §7

Assay [4] has as its system human lung adenocarcinoma cell line A549. Description: Cell activity analysis (acid phosphatase, ACP). The assay is classed as cell-based. The following applies: Lung Cancer A549, treated at least 48 hrs, read-out: IC50 (50% cell activity inhibited). The procedure:
as §1, §2, §3, §4, §5, §6, §7

Another assay has as its system HCT-116 cells. Description: Wound healing assay (cell migration). In kind it is cell-based, human. The following applies: up to 72 hrs. The procedure: (§8) Wound healing assay is one of the earliest developed methods to study directional cell migration in vitro, by mimicking cell migration during wound healing in vivo. The basic steps involve creating a “wound” in a cell monolayer, capturing the images at the beginning and at regular intervals during cell migration to close the wound, and comparing the images to quantify the migration rate of the cells.
Briefly, the assay was carried out using IBIDI culture-inserts and 24-well plates (IBIDI GmbH, Martinsried, Germany). The culture-inserts were respectively placed into each well. Aliquots of […] containing 3×10^4 cells (PC-9, MDA-MB-231 or CL1-5 cells) were added into the two reservoirs of the same insert and incubated for 8 hrs, then the inserts were gently removed from each wells, then culture medium (500 μL, 10% FBS) containing GMAS (25 or 50 μM) or solvent vehicle (i.e., the control) was added to each well. The cells in the culture wells were photographed respectively at 0, 12, 24, 48 and 72 hrs using an inverted microscope. Finally, the migration area or the “wound” area was quantified by Metamorph software (Molecular Devices).
The effect of GMAS on the migration capability of colon cancer cells was assessed using the wound healing assay as described in the section of “Materials and Methods”. Results are illustrated in FIG. 3.

A further assay concerns PC-9 cells. Nature of the assay: Wound healing assay (cell migration). In kind it is cell-based, human. The following applies: 5 μM GMAS; lung cancer cells (PC-9, FIG. 4). On the procedure:
as §8
Briefly, the assay was carried out using IBIDI culture-inserts and 24-well plates (IBIDI GmbH, Martinsried, Germany). The culture-inserts were respectively placed into each well. Aliquots of […] containing 3×10^4 cells (PC-9, MDA-MB-231 or CL1-5 cells) were added into the two reservoirs of the same insert and incubated for 8 hrs, then the inserts were gently removed from each wells, then culture medium (500 μL, […]) or solvent vehicle (i.e., the control) was added to each well. The cells in the culture wells were photographed respectively at 0, 12, 24, 48 and 72 hrs using an inverted microscope. Finally, the migration area or the “wound” area was quantified by Metamorph software (Molecular Devices).

Assay [5] relates to human non-small cell lung cancer cell line PC-9. Nature of the assay: Cell activity analysis (acid phosphatase, ACP). The following applies: PC-9, 72 h, read-out: IC50 (50% cell activity inhibited).
Experimental: (§9) Each cell lines were cultured and maintained in Dulbecco's modified Eagle media (DMEM) supplemented with 1% fetal bovine serum (FBS), 100 IU/ml penicillin, 100 ng/ml streptomycin, 2 mM glutamine, non-essential amino acids and sodium pyruvate in 5% CO2 at 37° C. Cells were grown and maintained in Petri dishes (each was 10 cm in diameter) until reached 80% confluence, then were subject to cell passages. […] Collected the suspended cells, added 2 mL fresh culture media to neutralize any remaining activity of trypsin. Adjusted the cell density by adding appropriate amounts of culture medium to the cell suspension, which was then used to seed the culture plates. The plates were then returned to the incubator and cultured in accordance with the steps described above.
(§10) In operation, cultured cells in each well were washed with PBS (200 μl), then a reacting solution (100 μl) (10 mM p-NPP, 0.1 M sodium acetate, 0.1% Triton X-100, pH 5.5) was added and allowed to react with the cells for 30-40 min at 37° C. The reaction was subsequently stopped with a basic solution (10 μl, 0.1N NaOH). […]
For assay [6], the system named is gefitinib-resistant human non-small cell lung cancer cell line PC-9 (PC9-IR). Description: Cell activity analysis (acid phosphatase, ACP).
Experimental: as §9, §10

Broadly, the IC50 is the midpoint of a concentration-inhibition curve. In the case of `CC(=O)O[C@H]1CC[C@]2(C)C3=CC[C@]4(C)[C@@H]([C@H](C)CC/C=C(\C)C(=O)O)C[C@H](OC(C)=O)[C@@]4(C)C3=CC[C@H]2C1(C)C` [GMAS, ganodermic acid S], the IC50 is 20.4 µM in assay [1]; 8 µM in assay [2]; 19.1 µM in assay [3]; 7.9 µM in assay [4]; 56.1 µM in assay [5]; 62.8 µM in assay [6] (Homo sapiens, 72 h, read-out: IC50 (50% cell activity inhibited)). In addition, the results for the “wound closing phenomenon (migration of colon cancer cells)” value with HCT-116 cells (25 μM GMAS) and in the assay with HCT-116 cells (50 μM GMAS) were “slightly inhibited” and “significantly suppressed”, respectively. Further, the “reduction of the migrated area as compared with control” value with PC-9 cells turned out to be 50%. Besides, the “Resistant Ratio (PC9-IR/PC9)” value in assay [6] (IC50 of PC9-IR divided by IC50 of PC-9) amounted to 1.1.

(Values after US20140294753A1, “NOVEL USE OF GANODERMIC ACIDS FOR TREATING CANCER” (DOUBLE CRANE BIOTECHNOLOGY CO. LTD, priority 2013, published 2014).)
